Experimental data from patent US20230218542A1, “MEDICAMENT FOR TREATING HYPERTENSION” (priority 2022, published 2023).

System: L-NAME-induced hypertensive rats
Experiment: Therapeutic effect on L-NAME-induced hypertensive rats (Effect Verification 1), tail artery pressure
Format: in vivo, SD rats
Conditions: for antihypertensive effect (overall finding): SBP and DBP, three weeks of administration; for comparison of SBP with that in the group M: after the end of the administration (third week)
Experimental: The tail artery pressure, including systolic blood pressure (SBP) and diastolic blood pressure (DBP), was measured in rats in the resting state at the same time using an ALC-NIBP noninvasive blood pressure measuring instrument. One hundred and fifty-two 6-week-old male SD rats were taken and subjected to adaptive feeding for one week at room temperature of 18-26° C. with the relative humidity of 40%-70% and illumination by artificial lighting from 9:00 to 21:00 every day. After one week, blood pressure in all of them was measured, the results were charted using Excel 2010, and the experimental data were analyzed using SPSS 20.0, where P < 0.05 indicated statistical significance and the measurement data were expressed as x̅ ± s. […] According to the commonly used grading criteria for hypertension, SBP 140 mmHg is the critical value of hypertension, and every 20 mmHg is one grade. Every 10 mmHg of DBP is one grade. Therefore, SBP > 140 mmHg is set as mild hypertension and SBP > 160 mmHg is set as moderate hypertension; optionally, DBP increased by more than 10 mmHg is mild hypertension and DBP increased by more than 20 mmHg is moderate hypertension.
Rats with the blood pressure in the normal range measured in the step 1 above and the weight of 200 ± 20 g were randomly taken and grouped into 7 groups: a control group (K) containing 8 rats, a model control group (M), a ligustrazine administration group (TMP, 60 mg/kg), a cannabidiol administration group (CBD, 60 mg/kg), and combined administration groups of TMP and CBD (divided into three groups in different ratios of 2:1 (XA), 1:1 (XB) and 1:2 (XC), TMP = 60 mg/kg, and CBD was 30 mg/kg, 60 mg/kg and 120 mg/kg, respectively). 10 rats were contained in each remaining group. Except for group K, 12 mg/kg L-NAME was administered intragastrically to the rest at 9:00 every day to manufacture a hypertension model, and distilled water was administered in an equal amount to K group. By the fourth week, blood pressure was measured in each group, and after individuals with SBP < 140 mmHg were excluded from the model, each group was administered for three weeks, and drug vehicles were administered in an equal amount to groups K and M. Blood pressure was measured once a week during the administration period. (The animal model was fasted for two hours before the administration, and the medicament was bathed to room temperature. TMP solution at 1 mL/100 g was firstly administered intragastrically to the combined administration groups of TMP and CBD, and after 1 h interval, CBD solution at the corresponding half volume was then administered intragastrically.)
One-way ANOVA analysis (Duncan) was used for pairwise comparisons among groups, and paired-sample t-test was used for before-and-after comparisons within groups. The change trend of SBP of rats in each group is shown in FIG. 2 and the change trend of DBP of rats in each group is shown in FIG. 3, and the abscissa “0” represents the fourth week of molding, i.e., the beginning of the administration period.

[1] = one week of intragastric administration
[2] = three weeks of intragastric administration
[3] = two weeks of intragastric administration

| Compound | antihypertensive effect (overall finding) | decrease of SBP (after the end of the administration) | comparison of SBP with that in the group M | Effect = (SBP in model group - SBP in administration group)/(SBP in model group - SBP in control group) [1] | Effect = (SBP in model group - SBP in administration group)/(SBP in model group - SBP in control group) [2] | Effect = (SBP in model group - SBP in administration group)/(SBP in model group - SBP in control group) [3] |
| --- | --- | --- | --- | --- | --- | --- |
| C=C(C)[C@@H]1CCC(C)=C[C@H]1c1c(O)cc(CCCCC)cc1O [CBD, cannabidiol] | significant antihypertensive effect | more than 10 mmHg | significant difference | 0.3222 | 0.3418 | 0.3628 |
| ligustrazine phosphate [TMP] | no significant antihypertensive effect | – | no significant difference | 0.0716 | 0.1722 | 0.0780 |
